What was measured:
[1] = cited from earlier work
[2] = test system: promyelocytic leukemia cells; details: relative to all-trans retinoic acid; cited from earlier work
skin of albino rabbits = experiment: Acute dermal irritation/corrosion (OECD 404), single topical 4-hour application; format: in vivo
Experimental: A study was conducted based upon the following references: OECD 404, Organization for Economic Co-Operation and Development (OECD), Guidelines for the Testing of Chemicals, “Acute Dermal Irritation/Corrosion”, adopted 24 Apr. 2002. ISO 10993-12, 2012, Biological Evaluation of Medical Devices—Part 12: Sample Preparation and Reference Materials. ISO/IEC 17025, 2005. General Requirements for the Competence of Testing and Calibration Laboratories.
The skin of three albino rabbits was prepared for testing by clipping the skin of the trunk free of hair at the application sites within 24 hours of the test. The sites of application were not abraded deliberately or accidentally during preparation. Tamibarotene was administered at dose levels of 0.02%, 0.04%, and 0.08% in 60% DMSO. The animals were treated by introducing each dose level (0.5 ml) under gauze patches at individual application sites. The control (0.5 ml of 60% DMSO) was applied to a fourth site.
As it was suspected that tamibarotene might produce severe irritancy/corrosion, a single animal test was initially employed. Test patches of each dose level and control were applied. After three minutes, the skin sites were examined by gently lifting the bandage to examine the skin without bandage removal. […] If a corrosion effect was observed after three minutes or one hour, the test was to be immediately terminated.
Because an irritation or corrosive effect was not observed in the initial test after one hour, the response was confirmed using two additional animals dosed with each dose level and control at individual application sites for four hours. At the end of the exposure period, the wrapping was removed from and the skin washed with USP sterile Water for Injection (SWFI) to remove any test substance still remaining. […] Observations were scored according to the Draize Scale for Scoring Skin Reactions.

[3] = clinical trials; cited from earlier work

SMILES | plasma concentration during daily administration [1] | potency as an inducer of differentiation compared to ATRA [2] | irritation or corrosive effect after one hour (skin of albino rabbits; initial single animal test, 0.02%, 0.04%, 0.08% in 60% DMSO, after one hour) | serious skin reaction after three minutes (skin of albino rabbits; initial single animal, 0.02%, 0.04%, 0.08% in 60% DMSO, 0.5 ml under gauze patches, examined after three minutes) | primary dermal irritation classification (skin of albino rabbits; single topical 4-hour application, dose levels 0.02%, 0.04%, 0.08% in 60% DMSO) | body weight (skin of albino rabbits; three albino rabbits, during the study) | signs of erythema or edema (Draize Scale) (skin of albino rabbits; three rabbits, 4-hour exposure, 0.02%, 0.04%, 0.08% in 60% DMSO, observed 60 minutes, 24, 48, 72 hours after bandage removal) | adverse side effects compared to ATRA [3]
CC1=C(/C=C/C(C)=C/C=C/C(C)=C/C(=O)O)C(C)(C)CCC1 [ATRA, all-trans retinoic acid] | declines considerably | – | – | – | – | – | – | –
CC1(C)CCC(C)(C)c2cc(NC(=O)c3ccc(C(=O)O)cc3)ccc21 [tamibarotene, Benzoic acid,4-[[(5,6,7,8-tetrahydro-5,5,8,8-tetramethyl-2-naphthalenyl)amino]carbonyl]—] | sustains plasma level | several times more potent | not observed | no serious skin reaction was observed | non-irritant | gained weight | None of the test sites presented any signs of erythema or edema | milder

— patent publication US11039995B2, “Topical compositions for reducing the effects of aging” (Samson Pharma, LLC, priority 2013, dated 2021)
